Laboratory results reported in patent publication US20260365671A1, “HETEROCYCLIC COMPOUND” (Takeda Pharmaceutical Company Limited, priority 2022, published 2026).
pIC50: −log10 of the molar value.

Experiments:
NLRP3 inflammasome = target: T1, NLRP3 inflammasome (Homo sapiens, UniProt Q96P20); assay: IL-1β TR-FRET assay (THP-1 cells differentiated to macrophages with IFN-γ, LPS primed, ATP activated; HTRF); type: cell-based; settings: THP-1 macrophages, 50 ng/mL LPS priming, compound 30 min, 20 mM ATP 2 hours
T1 construct: IL-1beta HTRF
How it was run: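 THP-1 cells differentiated with 25 ng/mL IFN-γ for 24 h, primed with 50 ng/mL LPS in serum-free medium for 24 h, then treated with compounds for 30 min before 20 mM ATP activation for 2 h at 37 °C. Secreted IL-1β quantified by HTRF; IC50 from logistic fit of % inhibition.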

NF-κB pathway = assay: TNF-α assay (THP-1 cells differentiated to macrophages with IFN-γ, NF-κB pathway activated with LPS; ELISA); type: cell-based, Human; settings: compound 30 min, 50 ng/mL LPS 3 hours
How it was run: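 THP-1 cells differentiated with 25 ng/mL IFN-γ for 24 h, then 30 min with compounds in serum-free medium. NF-κB activated with 50 ng/mL LPS, 3 h at 37 °C. Supernatant TNF-α by ELISA; IC50 from four-parameter logistic fit of % inhibition.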

[1] = Homo sapiens, THP-1, THP-1 macrophages

T1 sequence (Q96P20 whole entry): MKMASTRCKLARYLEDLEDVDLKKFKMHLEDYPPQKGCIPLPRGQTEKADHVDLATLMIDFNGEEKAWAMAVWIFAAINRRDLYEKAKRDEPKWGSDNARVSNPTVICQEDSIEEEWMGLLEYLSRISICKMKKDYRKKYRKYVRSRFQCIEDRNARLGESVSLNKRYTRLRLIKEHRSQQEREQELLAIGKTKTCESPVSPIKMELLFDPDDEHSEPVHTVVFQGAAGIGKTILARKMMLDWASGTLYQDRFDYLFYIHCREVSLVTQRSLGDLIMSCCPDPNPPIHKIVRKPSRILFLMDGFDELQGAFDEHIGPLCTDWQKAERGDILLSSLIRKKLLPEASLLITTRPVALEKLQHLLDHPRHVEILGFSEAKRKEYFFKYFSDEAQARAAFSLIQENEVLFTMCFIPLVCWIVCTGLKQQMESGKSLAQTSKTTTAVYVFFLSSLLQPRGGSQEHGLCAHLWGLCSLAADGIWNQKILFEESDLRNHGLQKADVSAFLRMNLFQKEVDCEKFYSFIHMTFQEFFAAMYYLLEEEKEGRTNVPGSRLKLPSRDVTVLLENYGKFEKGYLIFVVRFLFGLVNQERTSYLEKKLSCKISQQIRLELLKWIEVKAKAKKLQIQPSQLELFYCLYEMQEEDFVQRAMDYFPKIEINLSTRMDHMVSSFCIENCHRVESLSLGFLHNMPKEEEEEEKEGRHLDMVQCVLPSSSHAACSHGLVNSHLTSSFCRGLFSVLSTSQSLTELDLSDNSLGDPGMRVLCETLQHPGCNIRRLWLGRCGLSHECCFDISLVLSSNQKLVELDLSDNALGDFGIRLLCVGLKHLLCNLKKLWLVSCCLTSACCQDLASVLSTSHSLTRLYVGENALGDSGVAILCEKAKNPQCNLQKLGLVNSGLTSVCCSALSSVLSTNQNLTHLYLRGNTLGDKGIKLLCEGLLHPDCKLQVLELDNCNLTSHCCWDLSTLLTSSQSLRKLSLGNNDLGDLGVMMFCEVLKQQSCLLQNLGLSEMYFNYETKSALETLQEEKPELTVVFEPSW

| SMILES | pIC50 (NLRP3 inflammasome) | pIC50 (NF-κB pathway; [1]) | pIC50 (NF-κB pathway; THP-1 macrophages) |
| --- | --- | --- | --- |
| Cc1cc(C)c(-n2cc3sc(N[C@H]4CN(C)C[C@@H]4F)nc3n2)c(O)c1 [Example 80, 2-(5-{[(3S,4S)-4-fluoro-1-methylpyrrolidin-3-yl]amino}-2H-pyrazolo[3,4-d][1,3]thiazol-2-yl)-3,5-dimethylphenol] | 7.43 | < 4.52 |  |
| Cc1cc(C)c(-n2cc3sc(NC4CCN(C)CC4)nc3n2)c(O)c1 [Example 81, 3,5-dimethyl-2-{5-[(1-methylpiperidin-4-yl)amino]-2H-pyrazolo[3,4-d][1,3]thiazol-2-yl}phenol] | 5.51 | < 4.52 |  |
| Cc1cc(Cl)cc(O)c1-n1cc2c(nc(N[C@@H]3C[C@@H](F)CN(C)C3)n2C)n1 [Example 82, 5-chloro-2-[5-{[(3R,5R)-5-fluoro-1-methylpiperidin-3-yl]amino}-4-methylimidazo[4,5-c]pyrazol-2(4H)-yl]-3-methylphenol] | 7.31 | < 4.52 |  |
| CCC(O)CNc1nc2nn(-c3c(C)cc(C)cc3O)cc2s1 (stereo not drawn) [Example 83, 2-{5-[(2-hydroxybutyl)amino]-2H-pyrazolo[3,4-d][1,3]thiazol-2-yl}-3,5-dimethylphenol] | 6.09 | < 4.52 |  |
| Cc1cc(C)c(-n2cc3sc(NCC4(O)CC4)nc3n2)c(O)c1 [Example 84, 2-(5-{[(1-hydroxycyclopropyl)methyl]amino}-2H-pyrazolo[3,4-d][1,3]thiazol-2-yl)-3,5-dimethylphenol] | 6.42 | < 4.52 |  |
| CCc1cc(C)cc(O)c1-n1cc2sc(NC[C@@H](C)O)nc2n1 [Example 87, 3-ethyl-2-(5-{[(2R)-2-hydroxypropyl]amino}-2H-pyrazolo[3,4-d][1,3]thiazol-2-yl)-5-methylphenol] | 7.02 | < 4.52 |  |
| Cc1cc(O)c(-n2cc3sc(NC[C@@H](C)O)nc3n2)c(C(C)C)c1 [Example 93, 2-(5-{[(2R)-2-hydroxypropyl]amino}-2H-pyrazolo[3,4-d][1,3]thiazol-2-yl)5-methyl-3-(propan-2-yl)phenol] | 6.55 | < 4.52 |  |
| Cc1cc(O)c(-n2cc3sc(N[C@@H]4C[C@@H](F)CN(C)C4)nc3n2)c(C(C)C)c1 [Example 94, 2-(5-{[(3R,5R)-5-fluoro-1-methylpiperidin-3-yl]amino}-2H-pyrazolo[3,4-d][1,3]thiazol-2-yl)-5-methyl-3-(propan-2-yl)phenol] | 7.51 | < 4.52 |  |
| Cc1cc(C)c(-n2cc3sc(NC4CC(=O)N(C)C4)nc3n2)c(O)c1 (stereo not drawn) [Example 95, 4-{[2-(2-hydroxy-4,6-dimethylphenyl)-2H-pyrazolo[3,4-d][1,3]thiazol-5-yl]amino}-1-methylpyrrolidin-2-one] | 5.89 | < 4.52 |  |
| Cc1cc(C)c(-n2cc3sc(NC4CCN(S(=O)(=O)C5CC5)C4)nc3n2)c(O)c1 (stereo not drawn) [Example 101, 2-(5-{[1-(cyclopropanesulfonyl)pyrrolidin-3-yl]amino}-2H-pyrazolo[3,4-d][1,3]thiazol-2-yl)-3,5-dimethylphenol] | 6.38 | < 4.52 |  |
| Cc1cc(C)c(-n2cc3sc(NC4CCN(C)C4=O)nc3n2)c(O)c1 (stereo not drawn) [Example 103, 3-{[2-(2-hydroxy-4,6-dimethylphenyl)-2H-pyrazolo[3,4-d][1,3]thiazol-5-yl]amino}-1-methylpyrrolidin-2-one] | 6.09 | < 4.52 |  |
| Cc1cc(OC(F)F)cc(O)c1-n1cc2sc(N[C@@H]3C[C@@H](F)CN(C)C3)nc2n1 [Example 107, 5-(difluoromethoxy)-2-(5-{[(3R,5R)-5-fluoro-1-methylpiperidin-3-yl]amino}-2H-pyrazolo[3,4-d][1,3]thiazol-2-yl)-3-methylphenol] | 7.12 | < 4.52 |  |
| Cc1cc(C)c(-n2cc3sc(NC4CCCN(S(C)(=O)=O)C4)nc3n2)c(O)c1 (stereo not drawn) [Example 112, 2-(5-{[1-(methanesulfonyl)piperidin-3-yl]amino}-2H-pyrazolo[3,4-d][1,3]thiazol-2-yl)-3,5-dimethylphenol] | 6.26 | < 5.00 |  |

More lines, now with the values ahead:

| pIC50 (NLRP3 inflammasome) | pIC50 (NF-κB pathway; [1]) | pIC50 (NF-κB pathway; THP-1 macrophages) | SMILES |
| --- | --- | --- | --- |
| 6.46 | < 4.52 |  | CC(=O)N1CCC(Nc2nc3nn(-c4c(C)cc(C)cc4O)cc3s2)C1 (stereo not drawn) [Example 85, 1-(3-{[2-(2-hydroxy-4,6-dimethylphenyl)-2H-pyrazolo[3,4-d][1,3]thiazol-5-yl]amino}pyrrolidin-1-yl)ethan-1-one] |
| 6.52 | < 4.52 |  | CNC(=O)N1CCC(Nc2nc3nn(-c4c(C)cc(C)cc4O)cc3s2)C1 (stereo not drawn) [Example 86, 3-{[2-(2-hydroxy-4,6-dimethylphenyl)-2H-pyrazolo[3,4-d][1,3]thiazol-5-yl]amino}-N-methylpyrrolidine-1-carboxamide] |
| 6.26 |  | < 4.52 | COCC(=O)N1CCC(Nc2nc3nn(-c4c(C)cc(C)cc4O)cc3s2)C1 (stereo not drawn) [Example 89, 1-(3-{[2-(2-hydroxy-4,6-dimethylphenyl)-2H-pyrazolo[3,4-d][1,3]thiazol-5-yl]amino}pyrrolidin-1-yl)-2-methoxyethan-1-one] |
| 6.27 | < 5.00 |  | Cc1cc(C)c(-n2cc3sc(NC4CCN(C(=O)C(F)F)C4)nc3n2)c(O)c1 (stereo not drawn) [Example 90, 2,2-difluoro-1-(3-{[2-(2-hydroxy-4,6-dimethylphenyl)-2H-pyrazolo[3,4-d][1,3]thiazol-5-yl]amino}pyrrolidin-1-yl)ethan-1-one] |
| 6.18 | < 5.00 |  | COC(=O)N1CCC(Nc2nc3nn(-c4c(C)cc(C)cc4O)cc3s2)C1 (stereo not drawn) [Example 91, methyl 3-{[2-(2-hydroxy-4,6-dimethylphenyl)-2H-pyrazolo[3,4-d][1,3]thiazol-5-yl]amino}pyrrolidine-1-carboxylate] |
| 6.57 | < 4.52 |  | Cc1cc(C)c(-n2cc3sc(NC4CCN(C)C4)nc3n2)c(O)c1 (stereo not drawn) [Example 92, 3,5-dimethyl-2-{5-[(1-methylpyrrolidin-3-yl)amino]-2H-pyrazolo[3,4-d][1,3]thiazol-2-yl}phenol] |
| 6.40 | < 4.52 |  | Cc1cc(C)c(-n2cc3sc(NC4CCN(C(=O)C5CC5)C4)nc3n2)c(O)c1 (stereo not drawn) [Example 96, cyclopropyl(3-{[2-(2-hydroxy-4,6-dimethylphenyl)-2H-pyrazolo[3,4-d][1,3]thiazol-5-yl]amino}pyrrolidin-1-yl)methanone] |
| 6.59 | < 5.00 |  | Cc1cc(C)c(-n2cc3sc(NC4CCN(C(=O)CC5CC5)C4)nc3n2)c(O)c1 (stereo not drawn) [Example 97, 2-cyclopropyl-1-(3-{[2-(2-hydroxy-4,6-dimethylphenyl)-2H-pyrazolo[3,4-d][1,3]thiazol-5-yl]amino}pyrrolidin-1-yl)ethan-1-one] |
| 6.34 | < 4.52 |  | Cc1cc(C)c(-n2cc3sc(NC4CCN(C(=O)C5(F)CC5)C4)nc3n2)c(O)c1 (stereo not drawn) [Example 98, (1-fluorocyclopropyl)(3-{[2-(2-hydroxy-4,6-dimethylphenyl)-2H-pyrazolo[3,4-d][1,3]thiazol-5-yl]amino}pyrrolidin-1-yl)methanone] |
| 6.60 | < 4.52 |  | Cc1cc(C)c(-n2cc3sc(NC4CCN(C(=O)C5(C#N)CC5)C4)nc3n2)c(O)c1 (stereo not drawn) [Example 99, 1-(3-{[2-(2-hydroxy-4,6-dimethylphenyl)-2H-pyrazolo[3,4-d][1,3]thiazol-5-yl]amino}pyrrolidine-1-carbonyl)cyclopropane-1-carbonitrile] |
| 6.21 | < 4.52 |  | Cc1cc(C)c(-n2cc3sc(NC4CCN(S(C)(=O)=O)C4)nc3n2)c(O)c1 (stereo not drawn) [Example 100, 2-(5-{[1-(methanesulfonyl)pyrrolidin-3-yl]amino}-2H-pyrazolo[3,4-d][1,3]thiazol-2-yl)-3,5-dimethylphenol] |
| 6.55 | < 4.52 |  | Cc1cc(C)c(-n2cc3sc(NC4CCN(C(=O)C(C)(C)O)C4)nc3n2)c(O)c1 (stereo not drawn) [Example 102, 2-hydroxy-1-(3-{[2-(2-hydroxy-4,6-dimethylphenyl)-2H-pyrazolo[3,4-d][1,3]thiazol-5-yl]amino}pyrrolidin-1-yl)-2-methylpropan-1-one] |
| 6.21 | < 4.52 |  | CC(=O)N1CCCC(Nc2nc3nn(-c4c(C)cc(C)cc4O)cc3s2)C1 (stereo not drawn) [Example 108, 1-(3-{[2-(2-hydroxy-4,6-dimethylphenyl)-2H-pyrazolo[3,4-d][1,3]thiazol-5-yl]amino}piperidin-1-yl)ethan-1-one] |
| 6.23 | < 4.52 |  | CCC(=O)N1CCCC(Nc2nc3nn(-c4c(C)cc(C)cc4O)cc3s2)C1 (stereo not drawn) [Example 109, 1-(3-{[2-(2-hydroxy-4,6-dimethylphenyl)-2H-pyrazolo[3,4-d][1,3]thiazol-5-yl]amino}piperidin-1-yl)propan-1-one] |
| 6.00 | < 4.52 |  | COC(=O)N1CCCC(Nc2nc3nn(-c4c(C)cc(C)cc4O)cc3s2)C1 (stereo not drawn) [Example 110, methyl 3-{[2-(2-hydroxy-4,6-dimethylphenyl)-2H-pyrazolo[3,4-d][1,3]thiazol-5-yl]amino}piperidine-1-carboxylate] |
| 6.09 | < 4.52 |  | CNC(=O)N1CCCC(Nc2nc3nn(-c4c(C)cc(C)cc4O)cc3s2)C1 (stereo not drawn) [Example 111, 3-{[2-(2-hydroxy-4,6-dimethylphenyl) 2H-pyrazolo[3,4-d][1,3]thiazol-5-yl]amino}-N-methyl-piperidine-1-carboxamide] |
| 6.29 | < 4.52 |  | Cc1cc(C)c(-n2cc3sc(NC4CCCN(C(=O)CC(F)F)C4)nc3n2)c(O)c1 (stereo not drawn) [Example 113, 3,3-difluoro-1-(3-{[2-(2-hydroxy-4,6-dimethylphenyl)-2H-pyrazolo[3,4-d][1,3]thiazol-5-yl]amino}piperidin-1-yl)propan-1-one] |
